From patent US20120121736A1, “COMPOSITION FOR TREATING GASTRIC ULCER AND A PROCESS THEREOF” (priority 2010, published 2012)

Legend:
[1] = system: Ethanol Induced Ulcer Model; test: Alcohol (ethanol) induced gastric ulcer model; type: in vivo, rats; settings: in respect to the protection of Omeprazole taken as 100%
Method: EXPERIMENT 4: EFFECT ON ALCOHOL INDUCED GASTRIC ULCERS IN RATS Method: 1. Adult rats of either sex were taken; weighing 150-175 grams were fasted for 24 hours with free access to water.
2. The test drugs were administered (p. o.) 45 minutes before alcohol administration.
3. 1 ml of chilled absolute alcohol was administered (p. o.) to the rats (According to the Wittetal).
4. Immediately after 1 hour, the animals were anesthetized, abdomen was cut opened stomach was taken out and incised along the greater curvature to observe the gastric lesions.
The ulcers are examined under the 5× magnification with the help of magnascope. Absolute ethanol lesions appears as blackish lesions grouped in patches of varying size, usually parallel to the major axis of the stomach.
5. The lengths of the lesions are measured and summated to give a total lesion score, then calculated and expressed in percentage.

[2] = system: Aspirin induced ulcer model; test: Aspirin induced gastric ulcer model; type: in vivo, rats
Method: EXPERIMENT 2: EFFECT ON ASPIRIN INDUCED GASTRIC ULCER MODEL Method: Gastric ulceration was induced by aspirin according to the method of Djahanguiri (1969). Aspirin (150 mg/Kg.) was administered per orally as a suspension in gum-acacia and the animal was sacrificed 5 hr. after the aspirin treatment and the ulcer index with protection index were calculated.

[3] = system: pyloric ligation induced Ulcer; test: Pyloric ligation induced ulcer model; type: in vivo, rats; settings: in respect to the protection of Omeprazole taken as 100%
Method: EXPERIMENT 5: EFFECT ON PYLORIC LIGATION INDUCED ULCER MODEL Method: 1. Animals were fasted for 24 hours in the raised mesh bottom cages to prevent coprophagia and were allowed free access to water. 2. The control group of rats was feed with the vehicle and the experimental groups with their respective drugs 45 minutes prior to the ligation. 3. The animal was anesthetized, abdomen was cut opened under xiphoid process, and the pyloric portion of the stomach was slightly lifted and ligated avoiding any damage to the adjacent blood vessels (According to the method of Shay et al. 1945). 4. The animals were stitched and kept for 4 hours with free access to water. 5. After 4 hours the animals were sacrificed under ether anesthesia and the stomach was dissected out incised along the greater curvature. 6. The stomach was washed thoroughly and the ulcer index was scored as per in other ulcer models.

[4] = system: Cold Restraint Ulcer Model (CRU); test: Cold Restraint Ulcer (CRU) model; type: in vivo, rats
Method: EXPERIMENT 1: EFFECT ON COLD RESTRAINT ULCERS (CRU) MODEL METHOD: Adult rats of either sex, weighing 150-175 grams are fasted for 24 hours in metallic cages with raised mesh bottoms to prevent coprophagia and were allowed free access to water. The test drugs were administered 45 minutes before immobilizing the animals. The rats were immobilized in the restraint cage and kept at 4° C. in BOD incubator for 2 hours (According to the method of Senay and Levine 1967). The animals were sacrificed immediately after the restraint period. The abdomen was cut opened; stomach was taken out and incised along the greater curvature to observe the gastric lesions with the help of Magnascope (5× magnification) The following arbitrary scoring system was used to grade the severity and intensity of the lesions: 1. Shedding of epithelium=10 2. Petechial and frank hemorrhages=20 3. One or two ulcers=30 4. More than two ulcers=40 5. Perforated ulcers=50 The presence of any of these lesions was considered as a positive ulcerogenic response which has been shown as percentage of rats showing gastric lesions. The severity of ulcers is expressed in terms of ulcer index, which is the mean score of gastric lesions of all the rats in a group. The term Ulcer Index is defined as: Ulcer Index (U. I.)=Us+Up×10−1 where Us=Mean severity of ulcer score and Up=Percentage of animals with Ulcer incidences. The percentage protection is calculated as follows: Percentage protection=(C−T/C)×100. where C=Number of animals showing ulcer response in control group and T=Number of animals showing ulcer response in test group.

[5] = system: histamine induced duodenal ulcer; test: Histamine induced duodenal ulcer model; type: in vivo, Guinea pig
Method: EXPERIMENT 3: EFFECT ON HISTAMINE INDUCED ULCER MODEL Method:
1. Animals were fasted for 24 hours with access to water.
2. The drug was given orally 1 hour prior to the histamine administration.
3. Histamine was administered in a dose of 0.25 mg/Kg, i. m. at 30 minutes interval for 7 times and it induced 100% duodenal ulceration in guinea pig (According to the method of Watt and Eagleton 1964).
4. The animals were sacrificed after half an hour of last injection under ether anesthesia.
5. The stomach along with duodenum were removed washed thoroughly and examined for the lesions. Ulcer index and protection index were calculated.

[6] = 10 mg/Kg, standard, protection taken as 100%

COc1ccc2[nH]c([S+]([O-])Cc3ncc(C)c(OC)c3C)nc2c1 (stereo not drawn) [Omeprazole]
PROTECTION (Percentage protection) [1]: 100.0% | PERCENTAGE PROTECTION [2, 6]: 100% | Ulcer severity (type of lesions) Scores (No. of rats showing lesions/No. of rats tested) 10 ([2]; 10 = Shedding of epithelium, Omeprazole 20 mg/Kg, Aspirin 150 mg/Kg p.o.): 2/6 | Ulcer severity (type of lesions) Scores (No. of rats showing lesions/No. of rats tested) 20 ([2]; 20 = Petechial and frank hemorrhages, Omeprazole 20 mg/Kg, Aspirin 150 mg/Kg p.o.): 1/6 | Percentage of ulcer incidence (No. of rats showing ulcer/total No. of rats used) ([2]; Omeprazole 20 mg/Kg): 50 (3/6) % | PROTECTION (Percentage protection) [3]: 100% | PERCENTAGE PROTECTION [4, 6]: 100% | Ulcer severity (type of lesions) Scores (No. of rats showing lesions/No. of rats tested) 10 ([4]; 10 = Shedding of epithelium, Omeprazole 10 mg/Kg, p.o.): 3/10 | Ulcer severity (type of lesions) Scores (No. of rats showing lesions/No. of rats tested) 20 ([4]; 20 = Petechial and frank hemorrhages, Omeprazole 10 mg/Kg, p.o.): 2/10 | Volume of gastric fluid ([5]; Omeprazole 10 mg/Kg, p.o.): 1.0 ± 0.2 mL | PERCENTAGE PROTECTION ([5]; in respect to the protection of Omeprazole taken as 100%): 100% | Ulcer severity (type of lesions) Scores (No. of Guinea pig showing lesions/No. of Guinea pig tested) 20 ([5]; score 20, Omeprazole 10 mg/Kg, p.o.): 1/3
